What was measured:
recombinant HPK1 protein = biological target: T1, recombinant HPK1 protein (Homo sapiens, UniProt Q92918); assay: Primary assay of HPK1 enzymatic activity inhibition (ADP-Glo luminescence); type: biochemical; details: recombinant HPK1, MBP substrate, 1 hour at room temperature
T1 construct: purchased Promega V6398
T1 sequence (Q92918 1-346 limits assumed): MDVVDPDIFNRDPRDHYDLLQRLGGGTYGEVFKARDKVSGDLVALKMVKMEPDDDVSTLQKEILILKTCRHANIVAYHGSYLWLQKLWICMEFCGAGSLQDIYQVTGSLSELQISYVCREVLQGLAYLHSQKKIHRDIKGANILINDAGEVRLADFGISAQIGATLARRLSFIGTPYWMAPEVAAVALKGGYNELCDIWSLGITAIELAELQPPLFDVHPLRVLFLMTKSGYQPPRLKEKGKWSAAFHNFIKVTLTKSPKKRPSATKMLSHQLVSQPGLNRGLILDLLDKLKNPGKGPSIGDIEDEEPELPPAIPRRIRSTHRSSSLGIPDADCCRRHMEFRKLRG

Jurkat cells = assay: IL-2 release Jurkat assay (anti-CD3/anti-CD28 stimulation, IL-2 ELISA); type: cell-based, human; details: activation with 400 ng/mL aCD3 + 400 ng/mL aCD28, 24 hours
[1] = Table F: Jurkat, 1.0 μM of tested compounds
[2] = Table C: Jurkat, 6 μM of tested compounds, stimulated vehicle = A
[3] = Table G: Jurkat, 1.0 μM of tested compounds
[4] = Table B: Jurkat, 1.5 μM of tested compounds
[5] = Table D: Jurkat, 6 μM of tested compounds, stimulated vehicle = B

Structure (SMILES)	IC50 (recombinant HPK1 protein)	IL-2, pg/mL stimulated (Jurkat cells; [4])	also measured
Cc1noc(-c2cnc(Nc3ccc4c(c3)C(C)(C)NC4=O)nc2N[C@H](CO)c2ccccc2)n1 [Compound 579, 5-[[4-[[(1S)-2-hydroxy-1-phenyl-ethyl]amino]-5-(3-methyl-1,2,4-oxadiazol-5-yl)pyrimidin-2-yl]amino]-3,3-dimethyl-isoindolin-1-one]	< 50 nM		IL-2, pg/mL stimulated (Jurkat cells; [1]): A (IL-2<50 pg/mL)
O=S1(=O)CCCc2cc(Nc3ncc(-c4nc(CN5CCCC5)no4)c(N[C@H](CO)c4ccccc4)n3)ccc21 [Compound 586, (2S)-2-[[2-[(1,1-dioxo-3,4-dihydro-2H-thiochromen-6-yl)amino]-5-[3-(pyrrolidin-1-ylmethyl)-1,2,4-oxadiazol-5-yl]pyrimidin-4-yl]amino]-2-phenyl-ethanol]	< 50 nM		IL-2, pg/mL stimulated (Jurkat cells; [3]): D (150 pg/mL≤IL-2)
CCNC(=O)c1cnc(Nc2ccc(F)c(-c3ccccc3)c2)nc1N[C@H](CO)c1ccccc1 [Compound 189, N-ethyl-2-[(6-fluorobiphenyl-3-yl)amino]-4-{[(1S)-2-hydroxy-1-phenylethyl]amino}pyrimidine-5-carboxamide]	200 to 500 nM	C (25.0 pg/mL≤IL-2<35.0 pg/mL)	
CC(C)NC(=O)c1cnc(Nc2ccc3c(c2)CCN(C)C3=O)nc1N[C@H](CO)c1ccccc1 [Compound 212, 4-{[(1S)-2-hydroxy-1-phenylethyl]amino}-2-[(2-methyl-1-oxo-1,2,3,4-tetrahydroisoquinolin-6-yl)amino]-N-(propan-2-yl)pyrimidine-5-carboxamide]	50 to 200 nM	C (25.0 pg/mL≤IL-2<35.0 pg/mL)	
Cn1cc(-c2cnc(Nc3ccc4c(c3)CCNC4=O)nc2N[C@H](CO)c2ccccc2)cn1 [Compound 584, 6-[[4-[[(1S)-2-hydroxy-1-phenyl-ethyl]amino]-5-(1-methylpyrazol-4-yl)pyrimidin-2-yl]amino]-3,4-dihydro-2H-isoquinolin-1-one]	< 50 nM		IL-2, pg/mL stimulated (Jurkat cells; [1]): A (IL-2<50 pg/mL)
O=C(NCC(F)(F)F)c1cnc(Nc2ccc(F)c(-c3ccccc3)c2)nc1N[C@H](CO)c1ccccc1 [Compound 499, 2-[(6-fluorobiphenyl-3-yl)amino]-4-{[(1S)-2-hydroxy-1-phenylethyl]-amino}-N-(2,2,2-trifluoroethyl)pyrimidine-5-carboxamide]	200 to 500 nM	C (25.0 pg/mL≤IL-2<35.0 pg/mL)	
Cc1noc(-c2cnc(Nc3ccc4c(c3)CC(C)(C)NC4=O)nc2N[C@H](CO)c2ccccc2)n1 [Compound 578, 6-[[4-[[(1S)-2-hydroxy-1-phenyl-ethyl]amino]-5-(3-methyl-1,2,4-oxadiazol-5-yl)pyrimidin-2-yl]amino]-3,3-dimethyl-2,4-dihydroisoquinolin-1-one]	< 50 nM		IL-2, pg/mL stimulated (Jurkat cells; [3]): C (100 pg/mL≤IL-2<150 pg/mL)
CNC(=O)c1cnc(Nc2ccc3c(c2)CCN(C)C3=O)nc1N[C@H](CO)c1ccccc1 [Compound 43, 4-{[(1S)-2-hydroxy-1-phenylethyl]amino}-N-methyl-2-[(2-methyl-1-oxo-1,2,3,4-tetrahydroisoquinolin-6-yl)amino]pyrimidine-5-carboxamide]	50 to 200 nM	D (35.0 pg/mL≤IL-2)	
CNC(=O)c1cnc(Nc2ccc(F)c(-c3ccccc3)c2)nc1N[C@H](CO)c1ccccc1 [Compound 82, 2-[(6-fluorobiphenyl-3-yl)amino]-4-{[(1S)-2-hydroxy-1-phenylethyl]amino}-N-methylpyrimidine-5-carboxamide]	50 to 200 nM	C (25.0 pg/mL≤IL-2<35.0 pg/mL)	

Continued, in another order:

IC50 (recombinant HPK1 protein)	Structure (SMILES)	IL-2, pg/mL stimulated (Jurkat cells; [4])	also measured
50 to 200 nM	CCOC(=O)c1cnc(Nc2ccc(S(C)(=O)=O)cc2F)nc1N[C@H](CO)c1ccccc1 [Compound 211, Ethyl 2-{[2-fluoro-4-(methylsulfonyl)phenyl]amino}-4-{[(1S)-2-hydroxy-1-phenylethyl]amino}pyrimidine-5-carboxylate]		IL-2, pg/mL stimulated (Jurkat cells; [2]): B (50 pg/mL≤IL-2<100 pg/mL)
50 to 200 nM	CNC(=O)c1cnc(Nc2ccc(S(C)(=O)=O)c(F)c2)nc1N[C@H](CO)c1ccccc1 [Compound 105, 2-{[3-fluoro-4-(methylsulfonyl)phenyl]amino}-4-{[(1S)-2-hydroxy-1-phenylethyl]amino}-N-methylpyrimidine-5-carboxamide]	C (25.0 pg/mL≤IL-2<35.0 pg/mL)	
< 50 nM	CCOC(=O)c1cnc(Nc2ccc3c(c2)CCC(=O)N3)nc1N[C@H](CO)c1ccccc1 [Compound 46, Ethyl 4-[[(1S)-2-hydroxy-1-phenyl-ethyl]amino]-2-[(2-oxo-3,4-dihydro-1H-quinolin-6-yl)amino]pyrimidine-5-carboxylate]		IL-2, pg/mL stimulated (Jurkat cells; [5]): D (150 pg/mL≤IL-2)
200 to 500 nM	CC(C)NC(=O)c1cnc(Nc2ccc(S(C)(=O)=O)c(F)c2)nc1N[C@H](CO)c1ccccc1 [Compound 301, 2-{[3-fluoro-4-(methylsulfonyl)phenyl]amino}-4-{[(1S)-2-hydroxy-1-phenylethyl]amino}-N-(propan-2-yl)pyrimidine-5-carboxamide]	A (IL-2<5.0 pg/mL)	
< 50 nM	CCNC(=O)c1cnc(Nc2ccc3c(c2)CCN(C)C3=O)nc1N[C@H](CO)c1ccccc1 [Compound 119, N-ethyl-4-{[(1S)-2-hydroxy-1-phenylethyl]amino}-2-[(2-methyl-1-oxo-1,2,3,4-tetrahydroisoquinolin-6-yl)amino]pyrimidine-5-carboxamide]	D (35.0 pg/mL≤IL-2)	
200 to 500 nM	Cc1cc(Nc2ncc(C(=O)N(C)C)c(N[C@H](CO)c3ccccc3)n2)ccc1S(C)(=O)=O [Compound 157, 4-[[(1S)-2-hydroxy-1-phenyl-ethyl]amino]-N,N-dimethyl-2-(3-methyl-4-methylsulfonyl-anilino)pyrimidine-5-carboxamide]		IL-2, pg/mL stimulated (Jurkat cells; [2]): C (100 pg/mL≤IL-2<150 pg/mL)
< 50 nM	CCOC(=O)c1cnc(Nc2ccc(S(C)(=O)=O)c(C)c2)nc1N[C@H](CO)c1ccccc1 [Compound 166, Ethyl 4-{[(1S)-2-hydroxy-1-phenylethyl]amino}-2-{[3-methyl-4-(methylsulfonyl)phenyl]amino}pyrimidine-5-carboxylate]	C (25.0 pg/mL≤IL-2<35.0 pg/mL)	
50 to 200 nM	CCOC(=O)c1cnc(Nc2ccc3c(c2)CCNC3=O)nc1N[C@@H](CO)c1ccccc1 [Compound 568, ethyl 4-[[(1R)-2-hydroxy-1-phenyl-ethyl]amino]-2-[(1-oxo-3,4-dihydro-2H-isoquinolin-6-yl)amino]pyrimidine-5-carobxylate]	A (IL-2<5.0 pg/mL)	
200 to 500 nM	CCOC(=O)c1cnc(Nc2ccc(S(C)(=O)=O)cc2C)nc1N[C@H](CO)c1ccccc1 [Compound 167, Ethyl 4-{[(1S)-2-hydroxy-1-phenylethyl]amino}-2-{[2-methyl-4-(methylsulfonyl)phenyl]amino}pyrimidine-5-carboxylate]		IL-2, pg/mL stimulated (Jurkat cells; [2]): B (50 pg/mL≤IL-2<100 pg/mL)
200 to 500 nM	CCOC(=O)c1cnc(Nc2ccc(C(=O)N(C)C)c(C)c2)nc1N[C@H](CO)c1ccccc1 [Compound 125, Ethyl 2-[4-(dimethylcarbamoyl)-3-methyl-anilino]-4-[[(1S)-2-hydroxy-1-phenyl-ethyl]amino]pyrimidine-5-carboxylate]		IL-2, pg/mL stimulated (Jurkat cells; [5]): D (150 pg/mL≤IL-2)

Source: patent US20240270699A1, “COMPOUNDS HAVING N-ARYLPYRIMIDIN-2-AMINE DERIVATIVES AS THERAPEUTIC AGENTS” (Lomond Therapeutics, Inc., priority 2021, published 2024)
